In this assay the test system is Lactobacillus sakei Probio-65. Briefly: Antibiotic sensitivity test of the strain against fourteen antibiotics. Type of assay: cell-based. As to conditions: for Diameter: antibiotic amount 2 to 250 μg depending on antibiotic, compared with Resistance (mm); for Results: antibiotic amount (μg), resistant or susceptible by diameter (mm).

On to `CN(C)c1ccc(O)c2c1C[C@H]1C[C@H]3[C@H](N(C)C)C(O)=C(C(N)=O)C(=O)[C@@]3(O)C(O)=C1C2=O` [Minocyclin], for which the Diameter is 26 mm and the Results entry is “S”.
Regarding `CC1(C)S[C@@H]2[C@H](NC(=O)Cc3ccccc3)C(=O)N2[C@H]1C(=O)O` [Penicillin G], the Diameter worked out at 20 mm.
Consider Neomycin, for which the Diameter is listed as 9 mm and the Results entry is reported as “R”.
Turning to Gentamicin, the Diameter stood at 9 mm and the Results entry is listed as “R”.
Taken in the same sequence, the figures for `Cc1noc(NS(=O)(=O)c2ccc(N)cc2)c1C` [Sulfisoxzazole] were 0 mm and “R”.

For the origin of these results see US8034606B2, “Acid tolerant Lactobacillus sakei probio-65 with the ability of growth suppression of pathogenic microorganisms and the anti-allergic effect” (priority 2005, dated 2011).
